Measurements taken from US20240279687A1, “PEPTIDE NUCLEIC ACIDS FOR SPATIOTEMPORAL CONTROL OF CRISPR-CAS BINDING” (Yale University, priority 2021, published 2024).

Tests used:
dCas9-p300 / MYOD1 sgRNA [1] = target: T1, dCas9-p300 / MYOD1 sgRNA (UniProt Q09472+Q99ZW2, D10A/H840A); assay: ChIP-qPCR of H3K27ac occupancy at the MYOD1 promoter region; type: cell-based, human; details: 24 and 48 hours after PNA treatment (250 pmol), subsequent increase at 240 hours
T1 construct: P2A-PuroR (C)
Experimental: K562 cells (6×10^6 cells) were diluted to 0.4×10^6 cells/mL and cross-linked with a final concentration of 1% formaldehyde (Sigma-Aldrich, 252549) for each IP. Chromatin was prepared and sheared according to manufacturer protocol using SimpleChIP Enzymatic Chromatin IP Kit (Cell Signaling, #9003) and QSONICA Q800R3 sonicator for nuclear lysis. For each condition, 10 μg of chromatin was incubated with 3 μg of H3K27ac antibody (abcam ab4729) rotating overnight at 4° C. Chromatin was incubated with 30 μL of protein G magnetic beads (Cell Signaling, #70024) and washed, eluted, reverse cross-linked, and purified according to manufacturer protocol. ChIP-qPCR reactions were conducted in technical triplicate for 2% input and IP samples using a StepOnePLUS Real-Time PCR System (Applied Biosystems), SimpleChIP Universal qPCR Mastermix (Cell Signaling, #88989), and MYOD1 target specific primers (Table 8). Percent occupancy values were calculated by percent input method from 2% input samples for each replicate.

dCas9-p300 / MYOD1 sgRNA [2] = target: T1, dCas9-p300 / MYOD1 sgRNA; assay: dCas9-p300 MYOD1 expression in stable K562 cells, RT-qPCR; type: cell-based, human; details: 250 pmol PNA
Experimental: Stable K562-pLV-dCas9-p300 line was established from lentivirus generated from pLV-dCas9-p300-P2A-PuroR plasmid (Addgene: #83889) and Invitrogen Virapower packaging plasmids in 293FT cells (Invitrogen, R70007) and puromycin selection (2 μg/mL, Gibco). Lines were further transduced with lentivirus similarly generated with pLV-U6-UbC-eGFP-P2A-Bsr plasmids (Addgene: #83925) containing MYOD promoter targeted sgRNA sequences with blasticidin selection (5 μg/mL, Gibco, A1113903, Table 4).
6×10^6 stable dCas9-p300/MYOD1 sgRNA expressing K562 cells (Addgene #83889, Addgene #83925), were nucleofected with 250 pmol of specified PNA (non-targeting BFP or POU5F1) using a Lonza 4D nucleofector. At each specified time point 500 μL of cells were removed from each condition flask, spun down, and frozen. […] Expression relative to the untreated parent K562 line was recorded as fold-change and calculated using the ΔΔCT method. […]
For RNA extractions 0.5×10^6 K562 cells were spun down, washed once with PBS, homogenized using QIAshredder columns (QIAGEN 79656) and processed using QIAGEN RNeasy mini kits (74106) before eluting in 50 μL of water. […] Expression relative to the untreated K562 parent line was recorded as fold-change and calculated from averaged CT values using the ΔΔCT method.

## KKK-GCACGCCCTTTCCAAACCT-KKK (Three lysine residues flank each end, further chemistry not given here) [MYOD1 p300 PNA]
dCas9-p300 / MYOD1 sgRNA [1]
  H3K27ac occupancy at the MYOD1 promoter region: significant decrease
dCas9-p300 / MYOD1 sgRNA [2]
  time by which epigenetic-mediated MYOD1 gene upregulation was driven down: ≤ 24 h
  time by which expression returned to the fully upregulated state: ≤ 168 h
